Experimental data reported in the supplement of paper PMC10307832.

What was measured:
Experiment in all cases: relative viability (nuclei count vs DMSO), 5 days (fraction); higher = more cells survive
Linsitinib + Luminespib = compound: C[C@]1(O)C[C@@H](c2nc(-c3ccc4ccc(-c5ccccc5)nc4c3)c3c(N)nccn32)C1 [Linsitinib] + CCNC(=O)c1noc(-c2cc(C(C)C)c(O)cc2O)c1-c1ccc(CN2CCOCC2)cc1 [Luminespib] (partner 0.01 µM)
In short: (§1)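 Lung cancer cell lines were pin-tool dosed in 1536-well plates on the day after seeding, with either a lone drug or a fixed anchor-drug dose plus five library-drug doses (not always all listed) in √10 steps. Nuclei were counted on 4× images after 5 days. Relative viability is the ratio of treated-well to vehicle-well nuclei counts, with each value a median of duplicate plates.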

Linsitinib + AZD7762 = compound: C[C@]1(O)C[C@@H](c2nc(-c3ccc4ccc(-c5ccccc5)nc4c3)c3c(N)nccn32)C1 [Linsitinib] + NC(=O)Nc1cc(-c2cccc(F)c2)sc1C(=O)N[C@H]1CCCNC1 [AZD7762] (partner 0.2 µM)
In short: as §1

Ispinesib + Dasatinib = compound: Cc1ccc(C(=O)N(CCCN)[C@@H](c2nc3cc(Cl)ccc3c(=O)n2Cc2ccccc2)C(C)C)cc1 [Ispinesib] + Cc1nc(Nc2ncc(C(=O)Nc3c(C)cccc3Cl)s2)cc(N2CCN(CCO)CC2)n1 [Dasatinib] (partner 0.075 µM)
In short: as §1

Ispinesib + Vorinostat = compound: Cc1ccc(C(=O)N(CCCN)[C@@H](c2nc3cc(Cl)ccc3c(=O)n2Cc2ccccc2)C(C)C)cc1 [Ispinesib] + O=C(CCCCCCC(=O)Nc1ccccc1)NO [Vorinostat] (partner 1 µM)
In short: as §1

Row | Cell Line | relative viability (Linsitinib + Luminespib; first compound 0.01 µM) | relative viability (Linsitinib + Luminespib; first compound 0.03162 µM) | relative viability (Linsitinib + Luminespib; first compound 0.1 µM) | relative viability (Linsitinib + Luminespib; first compound 0.3162 µM) | relative viability (Linsitinib + Luminespib; first compound 1 µM) | relative viability (Linsitinib + AZD7762; first compound 0.01 µM) | relative viability (Linsitinib + AZD7762; first compound 0.03162 µM) | relative viability (Linsitinib + AZD7762; first compound 0.1 µM) | relative viability (Linsitinib + AZD7762; first compound 0.3162 µM) | relative viability (Linsitinib + AZD7762; first compound 1 µM) | relative viability (Ispinesib + Dasatinib; first compound 0.001 µM) | relative viability (Ispinesib + Dasatinib; first compound 0.003162 µM) | relative viability (Ispinesib + Dasatinib; first compound 0.01 µM) | relative viability (Ispinesib + Dasatinib; first compound 0.03162 µM) | relative viability (Ispinesib + Dasatinib; first compound 0.1 µM) | relative viability (Ispinesib + Vorinostat; first compound 0.001 µM) | relative viability (Ispinesib + Vorinostat; first compound 0.003162 µM) | relative viability (Ispinesib + Vorinostat; first compound 0.01 µM) | relative viability (Ispinesib + Vorinostat; first compound 0.03162 µM) | relative viability (Ispinesib + Vorinostat; first compound 0.1 µM)
1 | NCI-H441 | 0.296 | 0.327 | 0.211 | 0.245 | 0.281 | 1.2 | 1.07 | 1.29 | 0.831 | 0.898 | 0.713 | 0.634 | 0.453 | 0.293 | 0.266 | 0.838 | 0.909 | 0.91 | 0.548 | 0.256
2 | NCI-H520 | 0.21 | 0.195 | 0.241 | – | 0.208 | – | – | – | – | – | 0.164 | 0.229 | 0.178 | 0.152 | 0.198 | 0.776 | 0.71 | 0.662 | 0.268 | 0.234
3 | CAL-12T | 0.469 | 0.303 | 0.515 | 0.303 | 0.355 | 0.67 | 0.595 | 0.734 | 0.577 | 0.743 | 0.376 | 0.482 | 0.338 | 0.128 | 0.188 | 0.839 | 0.914 | 0.583 | 0.585 | 0.24
4 | HCC-827 | 0.733 | 0.599 | 0.648 | – | 0.657 | 0.151 | 0.223 | 0.207 | – | 0.221 | 0.36 | 0.318 | 0.317 | 0.292 | 0.263 | 0.827 | 0.999 | 0.861 | 0.649 | 0.696
5 | LC-2-ad | 1 | 1.07 | 0.971 | 0.873 | 0.877 | 0.862 | 0.816 | 0.814 | 0.805 | 0.54 | 0.566 | 0.716 | 0.737 | 0.318 | 0.133 | 0.718 | 0.697 | 0.765 | 0.321 | 0.19
6 | NCI-H2170 | 0.704 | 0.761 | 0.515 | 0.557 | 0.687 | 0.918 | 0.959 | 0.768 | – | 0.68 | 0.639 | 0.583 | 0.58 | 0.294 | 0.201 | 0.923 | 0.77 | 0.969 | 0.502 | 0.199
7 | SW 1573 | 0.22 | 0.359 | 0.238 | 0.129 | 0.238 | – | – | – | – | – | 0.529 | 0.426 | 0.721 | 0.122 | 0.153 | 0.6 | 0.678 | 0.646 | 0.197 | 0.148
8 | SK-MES-1 | 0.845 | 0.854 | 0.953 | 0.652 | 0.762 | – | – | – | – | – | 0.326 | 0.373 | 0.384 | 0.165 | 0.231 | 1.31 | 1.19 | 1.08 | 0.233 | 0.221
9 | SW 900 | 0.169 | 0.204 | 0.189 | 0.162 | 0.165 | 0.921 | 0.64 | 0.629 | 0.727 | 0.368 | 0.561 | 0.654 | 0.782 | 0.246 | 0.196 | 0.523 | 0.606 | 0.478 | 0.449 | 0.294
10 | NCI-H1793 | 0.166 | 0.205 | 0.164 | 0.149 | 0.178 | 0.577 | 0.559 | 0.39 | 0.352 | 0.169 | 0.361 | 0.412 | 0.451 | 0.334 | 0.141 | 0.702 | 0.881 | 0.925 | 0.38 | 0.318
11 | LCLC-97TM1 | 0.753 | 0.854 | 0.622 | 0.501 | 0.678 | 0.299 | 0.271 | 0.317 | 0.162 | 0.271 | 0.86 | 0.825 | 1.03 | 0.631 | 0.221 | 0.645 | 0.847 | 1.04 | 0.289 | 0.0855
12 | NCI-H1915 | 0.796 | 0.61 | 0.835 | 0.707 | 0.797 | 0.661 | 0.641 | 0.785 | 0.748 | 0.538 | 0.304 | 0.312 | 0.38 | 0.25 | 0.137 | 0.532 | 0.539 | 0.525 | 0.238 | 0.101
13 | NCI-H661 | 0.924 | 1.05 | 0.948 | 0.945 | 1.01 | – | – | – | – | – | 0.999 | 0.982 | 0.921 | 0.353 | 0.251 | 0.869 | 0.804 | 0.849 | 0.302 | 0.19
14 | NCI-H2405 | 0.762 | 0.724 | 0.653 | 0.703 | 0.475 | 0.74 | 0.662 | 0.711 | 0.859 | 0.474 | 0.208 | 0.223 | 0.656 | 0.184 | 0.247 | 1.07 | 1.19 | 1.23 | 0.622 | 0.519
